Each compound was assayed against Nav 1.7 (Homo sapiens (Human), UniProt Q15858) (assay: Nav 1.7 in vitro PX assay (PatchXpress whole cell voltage clamp)). Conditions: in-vitro Nav 1.7 PX (PatchXpress).
Assay type: cell-based
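Also: holding potential set for 20 to 50% inactivation, sodium current evoked by a 20 ms step to −10 mV, peak current inhibition read after compound exposure, 3–5 cells per concentration.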

Chain of Nav 1.7 (Q15858 whole entry): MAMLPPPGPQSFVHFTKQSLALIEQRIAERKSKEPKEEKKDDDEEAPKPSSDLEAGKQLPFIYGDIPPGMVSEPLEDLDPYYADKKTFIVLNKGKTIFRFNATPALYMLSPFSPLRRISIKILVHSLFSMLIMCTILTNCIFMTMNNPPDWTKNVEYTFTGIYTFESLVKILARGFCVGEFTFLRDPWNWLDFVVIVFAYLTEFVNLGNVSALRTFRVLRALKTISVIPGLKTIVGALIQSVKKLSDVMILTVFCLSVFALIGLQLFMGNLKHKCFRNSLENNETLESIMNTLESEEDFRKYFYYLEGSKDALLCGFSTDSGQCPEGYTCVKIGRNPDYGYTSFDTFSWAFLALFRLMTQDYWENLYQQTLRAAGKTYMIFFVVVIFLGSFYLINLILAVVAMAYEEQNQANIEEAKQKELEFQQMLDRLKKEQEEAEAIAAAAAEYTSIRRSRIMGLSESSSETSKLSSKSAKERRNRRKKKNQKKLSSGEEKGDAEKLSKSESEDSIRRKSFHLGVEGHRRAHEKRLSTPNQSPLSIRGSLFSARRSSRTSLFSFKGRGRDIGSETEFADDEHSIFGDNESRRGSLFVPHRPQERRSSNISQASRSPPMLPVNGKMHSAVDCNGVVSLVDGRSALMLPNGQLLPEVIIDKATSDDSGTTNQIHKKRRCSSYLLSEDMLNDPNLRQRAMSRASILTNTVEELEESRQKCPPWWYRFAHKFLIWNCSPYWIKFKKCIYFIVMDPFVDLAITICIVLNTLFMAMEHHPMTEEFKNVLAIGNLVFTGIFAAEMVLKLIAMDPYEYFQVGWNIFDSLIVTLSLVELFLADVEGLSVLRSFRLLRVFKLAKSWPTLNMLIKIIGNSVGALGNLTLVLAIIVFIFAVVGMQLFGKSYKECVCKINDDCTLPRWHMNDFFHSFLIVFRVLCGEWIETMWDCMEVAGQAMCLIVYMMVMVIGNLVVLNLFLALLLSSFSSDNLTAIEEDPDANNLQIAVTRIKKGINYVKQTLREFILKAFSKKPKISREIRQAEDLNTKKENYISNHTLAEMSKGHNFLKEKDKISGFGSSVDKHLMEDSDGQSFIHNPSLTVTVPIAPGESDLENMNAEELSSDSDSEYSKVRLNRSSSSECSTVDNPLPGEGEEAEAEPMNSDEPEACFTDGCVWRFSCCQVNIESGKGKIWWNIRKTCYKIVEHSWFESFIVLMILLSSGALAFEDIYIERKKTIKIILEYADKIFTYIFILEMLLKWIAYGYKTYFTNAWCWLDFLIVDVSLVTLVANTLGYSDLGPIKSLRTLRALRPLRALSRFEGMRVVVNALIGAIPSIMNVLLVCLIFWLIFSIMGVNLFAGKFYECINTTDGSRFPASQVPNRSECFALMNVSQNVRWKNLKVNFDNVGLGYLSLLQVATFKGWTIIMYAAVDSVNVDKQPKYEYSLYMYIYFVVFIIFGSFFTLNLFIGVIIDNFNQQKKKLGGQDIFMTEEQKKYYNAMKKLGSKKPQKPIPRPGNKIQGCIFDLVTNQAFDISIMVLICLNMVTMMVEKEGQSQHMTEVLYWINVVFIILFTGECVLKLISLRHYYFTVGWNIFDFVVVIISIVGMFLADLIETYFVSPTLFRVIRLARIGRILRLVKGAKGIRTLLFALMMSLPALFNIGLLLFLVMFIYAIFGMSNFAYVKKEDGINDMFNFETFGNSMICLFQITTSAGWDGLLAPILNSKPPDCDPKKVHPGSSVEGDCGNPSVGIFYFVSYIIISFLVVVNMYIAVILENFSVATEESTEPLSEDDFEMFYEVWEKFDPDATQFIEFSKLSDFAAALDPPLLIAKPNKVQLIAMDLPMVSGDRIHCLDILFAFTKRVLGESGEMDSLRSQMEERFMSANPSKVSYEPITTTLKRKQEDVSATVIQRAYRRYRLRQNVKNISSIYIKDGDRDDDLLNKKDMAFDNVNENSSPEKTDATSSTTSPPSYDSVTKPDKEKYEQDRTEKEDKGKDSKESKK

SMILES | IC50 [µM]
COc1cc(-c2cccc(F)c2)c(Cl)cc1-c1ncnc2cc(S(=O)(=O)Nc3ncc(F)cn3)ccc12 [Example 289, 4-(2-chloro-3′-fluoro-5-methoxy-4-biphenylyl)-N-(5-fluoro-2-pyrimidinyl)-7-quinazolinesulfonamide] | 0.0895
COc1cc(-c2cccc(F)c2)c(Cl)cc1-c1cccc2cc(S(=O)(=O)Nc3ccon3)ccc12 [Example 291, 5-(2-chloro-3′-fluoro-5-methoxy-4-biphenylyl)-N-3-isoxazolyl-2-naphthalenesulfonamide] | 1.16
COc1cc(-c2cccc(F)c2)c(C#N)cc1-c1cccc2cc(S(=O)(=O)Nc3ccon3)ccc12 [Example 292, 5-(2-cyano-3′-fluoro-5-methoxy-4-biphenylyl)-N-3-isoxazolyl-2-naphthalenesulfonamide] | 0.256
COc1cc(-c2cccc(F)c2)c(Cl)cc1-c1nccc2cc(S(=O)(=O)Nc3ncc(F)cn3)ccc12 [Example 294, 1-(2-chloro-3′-fluoro-5-methoxy-4-biphenylyl)-N-(5-fluoro-2-pyrimidinyl)-6-isoquinolinesulfonamide] | 0.256
COc1cc(-c2cc(C)c(Cl)c(F)c2)c(F)cc1-c1ncnc2cc(S(=O)(=O)Nc3ccon3)ccc12 [Example 295, 4-(4′-chloro-2,3′-difluoro-5-methoxy-5′-methyl-4-biphenylyl)-N-3-isoxazolyl-7-quinazolinesulfonamide] | 0.059
COc1cc(-c2ccc(C)c(Cl)c2F)c(F)cc1-c1ncnc2cc(S(=O)(=O)Nc3ccon3)ccc12 [Example 296, 4-(3′-chloro-2,2′-difluoro-5-methoxy-4′-methyl-4-biphenylyl)-N-3-isoxazolyl-7-quinazolinesulfonamide] | 0.105
COc1cc(-c2cc(C)cc(Cl)c2)c(F)cc1-c1ncnc2cc(S(=O)(=O)Nc3ccon3)ccc12 [Example 297, 4-(3′-chloro-2-fluoro-5-methoxy-5′-methyl-4-biphenylyl)-N-3-isoxazolyl-7-quinazolinesulfonamide] | 0.074
COc1cc(-c2cc(Cl)cc(Cl)c2)c(F)cc1-c1ncnc2cc(S(=O)(=O)Nc3ccon3)ccc12 [Example 300, 4-(3′,5′-dichloro-2-fluoro-5-methoxy-4-biphenylyl)-N-3-isoxazolyl-7-quinazolinesulfonamide] | 0.026
COc1cc(-c2cc(C)cc(F)c2)c(F)cc1-c1ncnc2cc(S(=O)(=O)Nc3ccon3)ccc12 [Example 301, 4-(2,3′-difluoro-5-methoxy-5′-methyl-4-biphenylyl)-N-3-isoxazolyl-7-quinazolinesulfonamide] | 0.032
COc1cc(-c2cc(F)cc(Cl)c2)c(F)cc1-c1ncnc2cc(S(=O)(=O)Nc3ccon3)ccc12 [Example 302, 4-(3′-chloro-2,5′-difluoro-5-methoxy-4-biphenylyl)-N-3-isoxazolyl-7-quinazolinesulfonamide] | 0.022
CCOc1ccc(-c2cc(OC)c(-c3ncnc4cc(S(=O)(=O)Nc5ccon5)ccc34)cc2F)cc1C [Example 304, 4-(4′-ethoxy-2-fluoro-5-methoxy-3′-methyl-4-biphenylyl)-N-3-isoxazolyl-7-quinazolinesulfonamide] | 0.61
COc1cc(-c2cc(F)cc(C3CC3)c2)c(C)cc1-c1ncnc2cc(S(=O)(=O)Nc3ccon3)ccc12 [Example 306, 4-(3′-cyclopropyl-5′-fluoro-5-methoxy-2-methyl-4-biphenylyl)-N-3-isoxazolyl-7-quinazolinesulfonamide] | 0.061
COc1cc(-c2cc(C)ccc2F)c(C)cc1-c1ncnc2cc(S(=O)(=O)Nc3ccon3)ccc12 [Example 307, 4-(2′-fluoro-5-methoxy-2,5′-dimethyl-4-biphenylyl)-N-3-isoxazolyl-7-quinazolinesulfonamide] | 0.113
COc1cc(-c2cc(Cl)ccc2F)c(C)cc1-c1ncnc2cc(S(=O)(=O)Nc3ccon3)ccc12 [Example 308, 4-(5′-chloro-2′-fluoro-5-methoxy-2-methyl-4-biphenylyl)-N-3-isoxazolyl-7-quinazolinesulfonamide] | 0.056
COc1cc(-c2cc(C)cc(F)c2)c(Cl)cc1-c1ncnc2cc(S(=O)(=O)Nc3ccon3)ccc12 [Example 309, 4-(2-chloro-3′-fluoro-5-methoxy-5′-methyl-4-biphenylyl)-N-3-isoxazolyl-7-quinazolinesulfonamide] | 0.04
COc1cc(-c2cc(F)cc(Cl)c2)c(Cl)cc1-c1ncnc2cc(S(=O)(=O)Nc3ccon3)ccc12 [Example 310, 4-(2,3′-dichloro-5′-fluoro-5-methoxy-4-biphenylyl)-N-3-isoxazolyl-7-quinazolinesulfonamide] | 0.045
COc1cc(-c2cc(C)cc(Cl)c2)c(Cl)cc1-c1ncnc2cc(S(=O)(=O)Nc3ccon3)ccc12 [Example 311, 4-(2,3′-dichloro-5-methoxy-5′-methyl-4-biphenylyl)-N-3-isoxazolyl-7-quinazolinesulfonamide] | 0.04

The remaining lines, values ahead:

IC50 [µM] | SMILES
0.058 | COc1cc(-c2cc(F)cc(Cl)c2)c(C)cc1-c1nccc2cc(S(=O)(=O)Nc3ccon3)ccc12 [Example 285, 1-(3′-chloro-5′-fluoro-5-methoxy-2-methyl-4-biphenylyl)-N-3-isoxazolyl-6-isoquinolinesulfonamide]
0.188 | COc1cc(-c2ccc(Cl)c(F)c2)c(C)cc1-c1nccc2cc(S(=O)(=O)Nc3ccon3)ccc12 [Example 286, 1-(4′-chloro-3′-fluoro-5-methoxy-2-methyl-4-biphenylyl)-N-3-isoxazolyl-6-isoquinolinesulfonamide]
0.111 | COc1cc(-c2ccc(C)c(Cl)c2)ccc1-c1nccc2cc(S(=O)(=O)Nc3ccon3)ccc12 [Example 287, 1-(3′-chloro-3-methoxy-4′-methyl-4-biphenylyl)-N-3-isoxazolyl-6-isoquinolinesulfonamide]
0.0775 | COc1cc(-c2ccc(Cl)c(C)c2)ccc1-c1nccc2cc(S(=O)(=O)Nc3ccon3)ccc12 [Example 288, 1-(4′-chloro-3-methoxy-3′-methyl-4-biphenylyl)-N-3-isoxazolyl-6-isoquinolinesulfonamide]
0.137 | COc1cc(-c2ccc(Cl)c(F)c2)ccc1-c1nccc2cc(S(=O)(=O)Nc3ccon3)ccc12 [Example 290, 1-(4′-chloro-3′-fluoro-3-methoxy-4-biphenylyl)-N-3-isoxazolyl-6-isoquinolinesulfonamide]
0.407 | COc1cc(-c2ccc(Cl)c(F)c2)ccc1-c1nccc2cc(S(=O)(=O)Nc3ncccn3)ccc12 [Example 293, 1-(4′-chloro-3′-fluoro-3-methoxy-4-biphenylyl)-N-2-pyrimidinyl-6-isoquinolinesulfonamide]
0.48 | COc1cc(-c2ccc(OCC(F)(F)F)nc2)ccc1-c1nccc2cc(S(=O)(=O)Nc3ccon3)ccc12 [Example 303, N-3-isoxazolyl-1-(2-methoxy-4-(6-(2,2,2-trifluoroethoxy)-3-pyridinyl)phenyl)-6-isoquinolinesulfonamide]
0.04 | COc1cc(F)cc(-c2cc(OC)c(-c3nccc4cc(S(=O)(=O)Nc5ccon5)ccc34)cc2F)c1 [Example 305, 1-(2,3′-difluoro-5,5′-dimethoxy-4-biphenylyl)-N-3-isoxazolyl-6-isoquinolinesulfonamide]

Source: US9776995B2, “Bicyclic sulfonamide compounds as sodium channel inhibitors” (AMGEN INC., priority 2013, dated 2017)
